Results taken from patent US8557763B2, “Synthetic peptides that enhance tight junction permeability” (Alba Therapeutics Corporation, priority 2007, dated 2013).
Where no end group is shown, it is not given here. [ ]: non-standard residue; d: D form. AllylGly = C=CC[C@H](N)C(=O)O

Columns and labels:
Type in all cases: cell-based
HeLa cells = assay: Assay of cytoskeletal (actin) rearrangement, fluorescence microscopy; settings: 60 minutes, FIG. 11
Protocol: FIG. 10 is a fluorescence microscopy analysis showing the effects of FCIGRL (SEQ ID NO:1) and F-(Allyl)GIGRL (SEQ ID NO:2) on actin rearrangement in HeLa cells after 15 minutes and 60 minutes.
Gliadin treated with the peptidases pepsin and trypsin (termed PT-gliadin or PTG) induces a cytoskeletal arrangement in CaCo2 cells grown in monolayers. The rearrangement can be visualized using a Nikon-TE2000 epifluorescence microscope and a 40× objective and Alexa Fluor 555 conjugated phalloidin (Invitrogen, Carlsbad, Calif.), which binds specifically to F-actin. Exposure times were identical for control and agonist treated samples. The figures were generated using Adobe Photoshop CS2 v 9.0.2. The concentration of agonist was as indicated. Tight junction agonists can be identified by their ability to induce the cytoskeletal rearrangement as shown by the effects of peptide FCIGRL, a known tight junction agonist. FIGS. 3-6 and 8-11 show the cytoskeletal rearrangements induced by exemplary tight junction agonists of the invention, including with respect to the distribution of F-actin and the tight junction protein ZO-1.

CaCo2 monolayers [1] = assay: Lucifer Yellow (LY) permeability assay through CaCo2 monolayers; set-up: key to Enhanced LY permeability: + indicates an enhancement of the permeability of the tight junctions were observed; − indicates no enhancement of permeability was observed; settings: CaCo2 monolayers, Lucifer Yellow flux
CaCo2 monolayers [2] = assay: Trans Epithelial Electric Resistance (TEER) across CaCo2 monolayers; set-up: key to Reduced TEER: + indicates an enhancement of the permeability of the tight junctions were observed; − indicates no enhancement of permeability was observed; settings: CaCo2 monolayers

With “Phe−AllylGly−Ile−Gly−Arg−Leu−OH [SEQ ID NO: 2]” the “actin rearrangement in HeLa cells” value (HeLa cells) was “actin cytoskeletal rearrangement to the borderline of cells”.
With “73 (F[AllylGly]IGRH-NH2; N-terminus assumed; SMILES C=CC[C@H](NC(=O)[C@@H](N)Cc1ccccc1)C(=O)N[C@H](C(=O)NCC(=O)N[C@@H](CCCNC(=N)N)C(=O)N[C@@H](Cc1c[nH]cn1)C(N)=O)[C@@H](C)CC) [compound 73]” the “Enhanced LY permeability” value (CaCo2 monolayers [1]) was “+” and the “Reduced TEER” value (CaCo2 monolayers [2]) was “+”.
For “48 (F[AllylGly]IQRL-NH2; N-terminus assumed; SMILES C=CC[C@H](NC(=O)[C@@H](N)Cc1ccccc1)C(=O)N[C@H](C(=O)N[C@@H](CCC(N)=O)C(=O)N[C@@H](CCCNC(=N)N)C(=O)N[C@@H](CC(C)C)C(N)=O)[C@@H](C)CC) [compound 48]”, the “Enhanced LY permeability” value (CaCo2 monolayers [1]) was “+” and the “Reduced TEER” value (CaCo2 monolayers [2]) was “+”.
“3 (F[AllylGly]IGR-NH2; N-terminus assumed; SMILES C=CC[C@H](NC(=O)[C@@H](N)Cc1ccccc1)C(=O)N[C@H](C(=O)NCC(=O)N[C@@H](CCCNC(=N)N)C(N)=O)[C@@H](C)CC) [compound 3]” was tested, and the “Enhanced LY permeability” value (CaCo2 monolayers [1]) was “−” and the “Reduced TEER” value (CaCo2 monolayers [2]) was “−”.
